Reference: patent EP1067939B1, “USE OF STEROIDAL ALKALOID DERIVATIVES AS INHIBITORS OF HEDGEHOG PROTEIN SIGNALING PATHWAYS” (The Johns Hopkins University, priority 1998, dated 1999)

Legend:
vibrissa follicle = assay: Vibrissa follicle explant cultures; assay type: cell-based, mouse
Method: Vibrissa follicle explants were established using CD- I mouse embryos at 13.5 days of gestation according to a previously described protocol (Hirai et al., 1989), with minor midifications. Vibrissa pads were transferred onto Nuclepore filters (13 mm, 8 µm pores), and floated on, 2 ml of medium [DMEM (Life Technologies. Gaithersburg, MD) + Ham's F12 medium (Life Technologies) (1:1), with 1% FCS (Intergen, Purchase. NY), penicillin (50 units/ml) and streptomycin (50 gg/ml) (Life Technologies)] in 6-well plates. […] Explants were fed fresh medium every two days. Microdissection was performed with the aid of a Nikon SMZ-2T stereomicroscope and photomicrographs were taken using an Olympus OM-4 camera. Cycloparnine was stored at -20 as a 10 mM stock in 95% EtOH.
RNA was obtained by solubilizing individual explants in TriZol (Life Sciences) and isolating as recommended by the manufacturer. cDNA was synthesized using SuperScript II Rnase H reverse transcriptase with random primers (Life Technologies), and RT-PCR performed using the following primers: MHKA1 (318 bp product), (forward 5'-[…]-3' and reverse 5'-[…]-3'); hacl-1 (308 bp product), (forward 5'-[…].3 and reverse 5'-[…]-3'); profilaggrin (330 bp product), (forward 5-[…]-3' and reverse 5'-[…]-3') (Bickenbach et al., 1995); P actin (421 bp product), (for-ward 5'-[…]-3' and reverse 5'[…]-3') (Walterhouse et al., 1993). The following PCR conditions were used for MHKA1. […]
Explants were established using vibrissa pads obtained from mice at 13.5 days of gestation (Hirai et al., 1989). […] These follicles contained hair shafts and expressed genes encoding mouse hair keratin A I (MHKA 1) (Kaytes et al., 199 1) and a hair cortex-specific marker Hacl- 1 (Huh et al., 1994), detected by RT-PCR (Fig. 11B). […] In keeping with our results obtained using Shh mutant skin, hair-specific transcripts are detected in cycloparnine-treated grafts (Fig. 11B) despite their altered development, providing further support for the notion that biochemical differentiation of the follicle is not necessarily coupled to its morphogenesis.

Shh = biological target: T1, Shh (Mus musculus, UniProt Q62226); assay: Shh processing in transiently-transfected COS-7 or QT6 cells; assay type: cell-based
T1 construct: expressed in transfected cells; host or cells: HK293 cells, Ecdysone-Inducible Mammalian Expression System (Invitrogen)
T1 sequence (Q62226 25-437): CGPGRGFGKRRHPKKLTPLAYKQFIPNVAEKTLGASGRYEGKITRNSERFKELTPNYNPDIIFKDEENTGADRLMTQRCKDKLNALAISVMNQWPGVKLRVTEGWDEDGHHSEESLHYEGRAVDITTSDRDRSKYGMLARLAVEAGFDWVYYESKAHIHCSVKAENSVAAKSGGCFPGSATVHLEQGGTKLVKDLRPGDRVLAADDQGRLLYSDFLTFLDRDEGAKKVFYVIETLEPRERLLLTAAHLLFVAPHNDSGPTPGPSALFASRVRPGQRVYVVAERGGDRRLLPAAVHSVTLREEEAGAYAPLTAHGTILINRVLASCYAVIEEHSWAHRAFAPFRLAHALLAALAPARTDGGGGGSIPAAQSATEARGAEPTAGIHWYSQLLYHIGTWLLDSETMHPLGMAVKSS

[1] = cultured vibrissa explants, RT-PCR

CC1=C2C[C@H]3[C@@H](CC=C4C[C@@H](O)CC[C@@]43C)[C@@H]2CC[C@]12O[C@@H]1C[C@H](C)CN[C@H]1[C@H]2C [Cyclopamine, cyclopamine]
late-stage follicle differentiation markers (vibrissa follicle; [1]): detected | profilaggrin mRNA (epidermal differentiation) (vibrissa follicle; [1]): accumulate profilaggrin mRNA | Morphogenesis of vibrissa follicles (vibrissa follicle; cyclopamine present in the medium for the duration of the experiment, concentration printed as I ∼M): blocked

C[C@H]1CC[C@]2(NC1)O[C@H]1C[C@H]3[C@@H]4CC[C@H]5C[C@@H](O)CC[C@]5(C)[C@H]4CC[C@]3(C)[C@H]1[C@@H]2C [Tomatidine, tomatidine]
Shh processing efficiency (Shh): did not observe any effect
